According to BindingDB's records for doi:10.1021/acs.jmedchem.3c00926 (Yale University, 2023):

molecular target: T1, Signal transducer and activator of transcription 3 (Homo sapiens, UniProt P40763); test: Inhibition of IL-23 induced STAT3 phosphorylation in human KIT225 cells by AlphaLISA assay
T1 sequence (P40763 whole entry): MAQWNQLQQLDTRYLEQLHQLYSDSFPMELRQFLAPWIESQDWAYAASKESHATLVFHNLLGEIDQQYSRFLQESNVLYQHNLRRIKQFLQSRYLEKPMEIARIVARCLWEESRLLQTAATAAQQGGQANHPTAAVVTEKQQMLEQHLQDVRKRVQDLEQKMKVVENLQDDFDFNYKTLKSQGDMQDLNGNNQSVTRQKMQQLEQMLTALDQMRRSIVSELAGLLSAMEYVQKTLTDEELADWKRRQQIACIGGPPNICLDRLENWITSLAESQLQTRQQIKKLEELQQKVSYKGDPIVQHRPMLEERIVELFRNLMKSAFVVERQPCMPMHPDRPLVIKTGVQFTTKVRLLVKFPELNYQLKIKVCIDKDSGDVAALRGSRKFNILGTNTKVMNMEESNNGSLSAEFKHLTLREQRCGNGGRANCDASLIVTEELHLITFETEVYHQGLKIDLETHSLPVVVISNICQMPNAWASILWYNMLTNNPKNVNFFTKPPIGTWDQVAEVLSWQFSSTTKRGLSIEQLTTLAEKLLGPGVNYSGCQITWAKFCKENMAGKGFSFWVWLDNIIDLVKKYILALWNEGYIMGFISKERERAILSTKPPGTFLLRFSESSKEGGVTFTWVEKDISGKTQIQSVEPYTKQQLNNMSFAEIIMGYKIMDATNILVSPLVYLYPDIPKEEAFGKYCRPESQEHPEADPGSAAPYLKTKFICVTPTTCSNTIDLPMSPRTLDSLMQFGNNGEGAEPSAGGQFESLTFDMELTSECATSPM

IC50 [nM]	SMILES
13	CNC(=O)c1cnc(Nc2ccc(C#N)cn2)cc1Nc1cccc(-c2ncn(C)n2)c1OC
180	NC(=O)c1ccccc1Nc1cc(Nc2ccc(F)cn2)ncc1C(N)=O
89	[2H]C([2H])([2H])NC(=O)c1nnc(NC(=O)C2CC2)cc1Nc1cccc(-c2ncn(C)n2)c1OC [Bms-986165]
8200	N#Cc1cc(Nc2cc(NC3CC3)c3ncc(C(N)=O)n3n2)cc(C(F)(F)F)c1
230	CNC(=O)c1cnc(Nc2ccc(F)cn2)cc1Nc1ccccc1S(C)(=O)=O
15	[2H]C([2H])([2H])NC(=O)c1nnc(NC(=O)C2CC2)cc1Nc1ccccc1S(C)(=O)=O

molecular target: T1, Signal transducer and activator of transcription 3; test: Inhibition of IL-23 induced STAT3 phosphorylation in human Jurkat cells incubated for 30 mins by microplate reader analysis

IC50 [nM]	SMILES
89	NC(=O)c1ccccc1Nc1cc(Nc2ccc(F)cn2)ncc1C(N)=O
